Usually melting point stands for the temperature, or range, at which the solid turns liquid. `Brc1cncc(OCc2ccc3ccccc3c2)c1` came in with a melting point of 108 to 109 °C.
To `CC(Oc1cc(Cl)ccc1Cl)C(=O)OCc1ccccc1` (stereo not given) belongs 56 to 58 °C; to `CCc1nc(COc2ccc(NC(=O)/C=C/c3cnn(C)c3-c3ccc(F)cc3)cc2)cs1`, 98 to 99 °C; to `Cc1nn(-c2cccnc2)c2nc3cc(F)c(F)cc3c(Cl)c12`, 192 to 194 °C.
Consider `CC1=CC(=O)C=CC1(C)C(Cl)(Cl)Cl` (stereo not given), for which the melting point is 57 °C.
The compound `CCOc1ccccc1OCC(O)CCN1C(=O)c2ccccc2C1=O` (stereo not given) yielded a melting point of 93 to 95 °C.
In the case of `O=C(CCCCCN1CCN(c2cccc(OC(F)(F)F)c2)CC1)N1Cc2ccccc2C1`, the melting point amounted to 89 °C.
Next, `CNC(=O)Nc1cc(OC)ccc1Br`: 164 to 166 °C.
To `CN(C(=O)CN(O)C(N)=O)c1cccc(OCc2ccccc2)c1` belongs 162 to 163 °C; to `COc1ccc(-c2ccc3cnc(Nc4cc5c(cc4F)CCC(=O)N5)nn23)cn1`, 295 °C.
For the compound `CC(C)C1Oc2ccccc2NC1=O` (stereo not given), the melting point is 118 to 119 °C.
To `O=C(O)c1[nH]c(=O)c2ccc(Cl)cc2c1-c1ccccc1` belongs over 300 °C; to `CCCCCNC(=O)c1ccc(N2CCC(N3C(=O)C(F)(F)c4ccccc43)CC2)nn1`, 100 to 102 °C.
To `CCCCOc1ccc(-c2ccc([C@H]3CC[C@H](CCC)CC3)c(C#N)c2C#N)cc1` belongs 115 °C; to `CC1(c2ccc(C(O)C(C)(C)C)cc2)OCCO1` (stereo not given), 75 to 80 °C.
Next, `CSc1ccc2oc3cc(F)ccc3c(=O)c2c1`: 113 to 116 °C.
For the compound `CCC(CC)N(O)C(=O)Nc1cc(C(F)(F)F)cc(C(F)(F)F)c1`, the melting point fell in the range of 115 to 116 °C.
With `CC(=O)c1cc(S(=O)(=O)c2ccccc2)ccc1O`, the melting point is 156 to 157 °C.
To `c1ccc(OCCSCc2nnc(-c3ccc(OCCN4CCCCC4)cc3)o2)cc1` belongs 70 °C; to `COc1cc(N2CCC(N3CCN(C)CC3)CC2)ccc1N`, 94 to 99 °C.
As to `O=C1N(C(c2ccccc2)c2ccccc2)c2ccccc2C12COc1cc(F)c(F)cc12` (stereo not given), the melting point is 213 to 216 °C.
Next, `Cc1ccc(-c2c(C#N)n(C)c(=O)c3ncccc23)cc1`: 268 to 270 °C.
Compound `CC1=C(C)c2cc(Br)ccc2Sc2ccccc21` displayed a melting point of 108 to 111 °C.
Next, `CSc1cnc2cc(C)sc2c1O`: 222 to 225 °C; `CCOC(=O)CON=c1c2nccc3cccc(c32)n2cccc12`: 134 °C.
Take `COC(=O)CN1C(=O)CN=C(c2ccccc2Cl)c2ccccc21`: the melting point was in the range of 166 to 168 °C.
To `Cc1[nH]cnc1/C=C1\CCc2c(c3cccc4c3n2CCC4)C1=O` belongs 260 to 264 °C; to `Cc1oc2cc(NS(C)(=O)=O)c(Oc3ccccc3)cc2c(=O)c1C(=O)O`, 238 to 241 °C; to `CCOC(=O)C(=NOC)c1csc(NC(=O)CCl)n1`, 81 to 82 °C.
Next, `Nc1nc(-c2ccc(F)cc2)c(CC(=O)O)s1`: 267 to 268 °C; `CCOC(=O)c1nn(Cc2ccc(Cl)cc2Cl)c(-c2ccc(Cl)cc2)c1C`: 82 °C.
The compound `CCOP(=S)(NCc1cccc(-c2nc(=O)c3ccccc3s2)n1)OCC` displayed a melting point of 132 to 133 °C.
To `Cc1ccc(N2C(=O)C(O)=C(C(=O)c3ccc(C(C)C)cc3)C2c2ccc(F)cc2)nn1` (stereo not given) belongs 273 to 278 °C.
In turn, `Fc1ccc(-c2cnc3ccccc3n2)cc1` had a melting point of 122 °C.
To `COc1ccc(OC)c(S(=O)(=O)N2CCC(N3N=C(c4ccc(OC)c(OC)c4)CCC3=O)CC2)c1` belongs 184 to 185 °C.
Next, `O=C(O)CCCCCCCCc1ccc(O)cc1`: 103 to 105 °C; `NC(CCOS(=O)(=O)c1ccccc1)C(=O)Nc1ccccc1` (stereo not given): 89 °C.
To `Cc1ncn(-c2nc(Cl)c(-c3ccccc3)c3ccccc23)c1C` belongs 164 to 165 °C; to `C=Cc1ccc(N2C[C@H](CNC(C)=O)OC2=O)cc1F`, 165 to 166 °C; to `O=C(Nc1ccc(F)nc1)c1cccc(-c2cccc3oc(Cc4cccc(C(F)(F)F)c4)cc23)c1`, 117 to 118 °C.
As for `C#CC1(Oc2ccccc2[N+](=O)[O-])CCN(C(C)=O)CC1`, the melting point fell in the range of 112 to 115 °C.
To `N=C(N)c1c[nH]c2ccc(CCNC(=O)c3ccc(-c4ccnc(N5CCCC5C(N)=O)n4)cc3)cc12` (stereo not given) belongs 139 to 141 °C; to `O=C1NCCc2ccc(OCCCCN3CCN(c4cccc5ccc(F)cc45)CC3)nc2N1`, 234 °C.
To `CCOC(=O)Cc1coc2c(OC)ccc(C(=O)Cc3c(Cl)cncc3Cl)c12` belongs 105 to 115 °C; to `COCCOC(=O)Nc1cccc(C)c1CNc1cccn2c(CO)c(C)nc12`, 138 to 140 °C.
To `COc1cc(C(C)C)c(Oc2cnc(N)nc2N)cc1-c1ncon1` belongs 135 to 138 °C; to `CCCCOC(=O)CNC(=O)c1ccc2cc(C(=O)O)[nH]c2c1`, 267 to 268 °C.
Consider `COc1ccc(-c2c[nH]c3c(OC)ccc(OC)c3c2=O)cc1`, for which the melting point lay in the range of 124 to 125 °C.
Next, `O=C(Cl)N1CCN(c2ccccc2)CC1`: 79.5 °C; `COc1ccc2c(c1)C(CCNC(=O)C(F)(F)F)C1(CC2)Cc2ccccc2C1` (stereo not given): 149 to 152 °C; `CCCCCCCCCCCCNC(=S)NCCCC`: 49 to 55 °C.
To `O=C1CCCc2c(-c3ccccc3)[nH]c(-c3ccncc3)c21` belongs 254 to 255 °C; to `CCOC(=O)C(=O)N1Cc2cc(OC)ccc2C(Cc2c(Cl)cncc2Cl)=N1`, 140 to 142 °C; to `O=C(NN1CCCCC1)c1nn(-c2ccccc2-c2ccccc2Cl)c2c1C1CC3CC(C1)CC2C3`, 206 °C.
Next, `O=C(NCc1ccc(Cl)cc1)c1cn2c3c(cc(CN4CCOCC4)cc3c1=O)CN(Cc1ccccc1)C2=O`: 201 to 204 °C; `Cc1nc(NC(=O)c2ccc(F)cc2Cl)sc1C(=O)NCc1ccccc1`: 95 to 96 °C; `Nc1ccc(C(O)(Cc2ccccc2)c2ccccc2)cc1` (stereo not given): 105 to 107 °C.
In the case of `CC(C)CCNC1=NS(=O)(=O)c2sc(Cl)cc2N1`, the melting point is 230 to 232 °C.
With `COc1ccc(CSc2ccc([N+](=O)[O-])cc2C(=O)O)cc1`, the melting point was in the range of 200 to 204 °C.
To `O=C(Nc1nc(-c2ccc([N+](=O)[O-])cc2)cs1)OCC(Cl)(Cl)Cl` belongs 207 to 209 °C.
The compound `CN1C(=O)c2ccccc2C(CCO)N1c1cccc([N+](=O)[O-])c1` (stereo not given) showed a melting point of 183 to 184 °C.
To `Cc1ccc(C(=O)c2ccncc2C(=O)O)cc1` belongs 230 to 231 °C; to `COc1ccc(-n2nc(Sc3ccc(-c4ccccc4)cc3)c(C)c(C#N)c2=O)cc1`, 205 to 207 °C; to `CC12CCC3C(CC=C4CC(O)CCC43C)C1=CCC2=O` (stereo not given), 161 to 164 °C.
To `O=c1ccc(S(=O)(=O)c2cc3ccccc3s2)n[nH]1` belongs 209 to 210 °C.
To `O=[N+]([O-])C=C1CN=C(c2ccccc2F)c2cc(I)ccc2N1` belongs 214 to 216 °C.
In turn, `Nc1ccc(S(=O)(=O)c2cc(-c3cc(C(F)(F)F)cc(C(F)(F)F)c3)nc(N3CCCC3)c2)cc1` gave a melting point of 184 to 186 °C.
Next, `CC(C)n1cc(-c2ccc(C=O)cc2)c2c(Cl)ncnc21`: 138 to 140 °C; `COc1ccc(CN2C(=O)C(C)(c3cc(NC(N)=O)ccc3Cl)c3cc(Cl)ccc32)c(OC)c1` (stereo not given): 254 °C.
Next, `Nc1c(Cl)ncnc1NCc1ccccn1`: 140 °C.
In the case of `CN1C(=O)C(=O)NCC1(CCOC1CCCCO1)c1ccc(Cl)c(Cl)c1` (stereo not given), the melting point is 260 °C.
To `C#CCNc1ccc([N+](=O)[O-])cc1` belongs 150 to 153 °C.
Turning to `O=C(NNC(=O)C(F)(F)F)C(F)(F)F`, the melting point fell in the range of 173 to 175 °C.
Next, `Cc1nc2ccc(C(=O)NS(=O)(=O)c3ccccc3)nc2n1Cc1ccc(COc2ccccc2)cc1Cl`: 203 to 205 °C.
In the case of `CCOC(=O)C(C#N)=NOC(=O)OC`, the melting point was 69 to 71 °C.
Next, `CC(C)(C)C(=O)CCSC(=S)Nc1ccc(Cl)cn1`: 111 °C; `CSc1ccc2[nH]c(C(=O)O)cc(=O)c2c1`: 256 to 257 °C; `CCNC(=O)NCCSCC(=O)NC/C=C\COc1cccc(CN2CCCCC2)c1`: 90.2 to 91.2 °C.
Next, `CCON1C(C)(C)CC(OC(=O)c2ccccc2)CC1(C)C`: 76 to 78 °C; `Cc1c(-c2c(C)c3ccccc3n2S(=O)(=O)c2ccccc2)n(S(=O)(=O)c2ccccc2)c2ccccc12`: 224 °C; `O=C1c2ccccc2C(=O)N1CCc1ccc(CCC2CCCCC2)cc1`: 135 to 138 °C.
Next, `CN1CCN(c2cc(Cl)cc3c2c(=O)n(Cc2ccccc2O)c(=O)n3Cc2ccccc2)CC1`: 130 to 132 °C.
`Clc1nccnc1NCCOc1ccccc1` had a melting point of 51 to 53 °C.
Next, `CCOC(=O)c1cn(NC)c2cc3c(cc2c1=O)OCO3`: 211 to 218 °C.
Turning to `CC(=O)OCC1OC(Oc2ccsc2Cc2ccc(OC(F)(F)F)cc2)C(OC(C)=O)C(OC(C)=O)C1OC(C)=O` (stereo not given), the melting point was in the range of 113 to 114 °C.
To `Cn1nc(-c2ccc(Cl)cc2)nc1-c1ccncc1` belongs 191 °C; to `COc1ccc(C#N)c(F)c1OC`, 64 to 65 °C.
Next, `CN(C)c1cc2c(=O)n(NS(C)(=O)=O)c(=O)[nH]c2cc1C(F)(F)F`: 254 to 272 °C; `CCOC(=O)c1ccc(-c2nc3ccc(C)cn3c2CNC(=O)CC(C)C)cc1`: 230 to 231 °C; `N#CCc1nn2c(C(F)(F)F)cc(-c3ccc(F)c(Cl)c3)nc2c1C#N`: 185 °C.

The record behind these values is a melting point compilation (Tetko et al.; mined from patent text by program, amines drawn as free bases though some values may be those of a salt).
